What was measured:
Format in all cases: cell-based, murine
[1] = system: differentiated 3T3-L1 adipocytes; assay: NAD+/NADH ratio (NAD+/NADH-Glo); conditions: 1 μM
Procedure: NAD+/NADH Ratio: 3T3-L1 cells were seeded, differentiated and treated with or without AZD3965 (1 μM) for 15 min, 30 min, 1 hr, 4 hr, 8 hr or 24 hr in clear 96 well plates (Corning®). Following incubation with the compound, the NAD+/NADH-Glo™ (Promega®) kit was used to measure both the NAD+ and NADH concentrations within each sample according to the manufacturer's protocol. Briefly, samples were lysed and split into 2 separate white 96 well plates (Corning®). One plate was treated with a strong acid (0.4N HCl) to eliminate NADH in the sample while the other plate was treated with a strong base (0.2N NaOH) to eliminate NAD+, and both plates were incubated at 60° C. for 15 minutes. Samples were then neutralized and subjected to the NAD+/NADH-Glo™ assay. Within this assay, in the presence of NAD+ or NADH, an enzyme ‘Reductase’ reduces a pro-luciferin reductase substrate to form luciferin which emits a luminescent signal directly proportional to the quantity of NAD+ or NADH within the sample. Luminescence was read on a spectrophotometer (FlexStation 3; Molecular Devices). To calculate the NAD+/NADH ratio for each sample, luminescence from acid-treated samples, (reflecting NAD+level), was divided by the luminescence signal from the corresponding base-treated samples (reflecting NADH levels).

[2] = system: differentiated 3T3-L1 (WT) cells; assay: Immunoblotting of protein expression in differentiated adipocytes
Procedure: Immunoblotting: For the collection of membrane bound proteins (i.e., MCT1), cells were lysed and the membrane fraction of protein was isolated as previously described (Sadler, J B A, et al. Preparation of a total membrane fraction from 3T3-L1 adipocytes (Cold Spring Harb. Protoc. 2016, 2016, pdb-prot083675). Briefly, cells were lysed with ice cold HES buffer (250 mM sucrose, 20 mM HEPES, 1 mM EDTA, pH7.4) containing a cocktail of protease and phosphatase inhibitors (Roche Diagnostic) and centrifuged for 5 min (500 g at 4° C.) to pellet out nuclei. The remaining supernatant (containing cytosolic and membrane bound proteins) was collected. For all other immunoblotting experiments, RIPA lysis buffer containing protease and phosphatase inhibitors was used, and protein was isolated via centrifugation at 17,000 g for 10 min at 4° C. For all samples, protein concentration of the lysates was measured using the BCA Protein Assay Kit (Pierce Biotechnologies). Diluted lysates were added to Laemmli sample buffer and denatured at 95° C. for 5 min. After sample preparation, proteins were resolved via SDS-polyacrylamide gel electrophoresis (4-12%) using NuPAGE 4-12% Bis-Tris gels (Invitrogen), and transferred to nitrocellulose membranes. Blots were placed in blocking buffer (LI-COR Biosciences) and incubated overnight at 4° C. with primary antibodies at the recommended dilution. Blots were washed 3 times (5 minutes per wash) in TBST (20 mM Tris, pH 7.6, 140 mM NaCl, and 0.1% Tween-20), and then incubated with the appropriate IRDye-conjugated secondary antibody (LI-COR Biosciences) diluted in blocking buffer and incubated at room temperature for an hr. […] Bands were quantified using Image Studio™ (LI-COR Biosciences).

[3] = system: differentiated 3T3-L1 adipocytes; assay: Intracellular pyruvate (Amplite fluorimetric assay); conditions: 1 μM
Procedure: Intracellular Pyruvate: Intracellular pyruvate was measured using the Amplite™ Fluorimetric Pyruvate Assay Kit (AAT Bioquest) according to the manufacturer's instructions. 3T3-L1 cells were seeded and differentiated in white clear bottom 96-well plates (Corning®). After differentiation, cells were treated with compound or vehicle as indicated. Following 15 min, 30 min, 1 hr, 4 hr, 8 hr or 24 hr incubation with 1 μM AZD6965, media was removed, and cells were lysed with ReadiUse™ mammalian cell lysis buffer (AAT Bioquest). Lysates were then subjected to an enzyme-coupled reaction with the Quest Fluor™ Pyruvate Sensor resulting in an […] detected at 575 nm which is proportional to the quantity of pyruvate within the sample. Absorbance was read on a spectrophotometer (FlexStation 3; Molecular Devices).

[4] = system: differentiated 3T3-L1 cells; assay: Proliferation (CyQUANT NF) of differentiated adipocytes; conditions: 72 hr treatment, all concentrations ≥1 μM
Procedure: Proliferation: 3T3-L1 cells were seeded and differentiated in black clear bottom 96-well plates (Corning®). After differentiation, wells were treated with vehicle or AZD3965 concentrations ranging from 10 nM to 10 µM for 24 hr, 48 hr or 72 hr as indicated. Cell viability was measured at the end of each treatment time using the CyQUANT™ NF Cell Proliferation assay (Invitrogen™) according to the manufacturer's protocols.

[5] = system: differentiated 3T3-L1 adipocytes; assay: Intracellular lactate (Lactate-Glo); conditions: 1 μM
Procedure: Intracellular Lactate: Intracellular lactate was measured using the Lactate-Glo™ Assay Kit (Promega®) according to the manufacturer's instructions. 3T3-L1 cells were seeded and differentiated in white clear bottom 96-well plates (Corning®). After differentiation, cells were treated with compound or vehicle as indicated. Following 15 min, 30 min, 1 hr, 4 hr, 8 hr or 24 hr incubation with […] AZD6965, media was removed, and cells were lysed. Lysates were then subjected to a proprietary enzymatic reaction coupling lactate oxidation and NADH production with a bioluminescent detection system supplied by the Lactate-Glo™ Assay kit, and luminescence was read on a spectrophotometer (FlexStation 3; Molecular Devices). The data generated were normalized by dividing the relative luminescence units (RLU) collected for each experimental condition by the average RLU of vehicle control.

[6] = system: differentiated 3T3-L1 (WT) cells; assay: Glucose uptake (Glucose Uptake-Glo) in WT adipocytes; conditions: for insulin-stimulated glucose uptake: then 175 nM insulin 30 minutes
Procedure: Glucose Uptake: 3T3-L1 cells were seeded and differentiated in clear bottom 96-well plates (Corning®). After differentiation, cells were treated with or without […] AZD3965 for 24 hr, 48 hr or 72 hr as illustrated in FIG. 7 (schematic outline of experimental procedure). The cells were incubated in serum free media the night before performing the assay. The following day/morning, media was changed to serum and glucose free media for 2 hr prior to the experiment. Cells were then stimulated with 175 nM Insulin or vehicle (PBS) for 30 minutes. Glucose Uptake was measured using the Glucose Uptake-Glo™ Assay (Promega®) according to the manufacturer's protocol. The data generated were normalized by dividing the relative luminescence units (RLU) measured in insulin stimulated wells by vehicle treated controls. The aforementioned experiment was repeated in the presence of the CDK1 inhibitor, RO-3306 (10 μM), where indicated (FIG. 5C).

Question: For `Cc1[nH]nc(C(F)(F)F)c1Cc1sc2c(c1C(=O)N1C[C@](C)(O)CO1)c(=O)n(C)c(=O)n2C(C)C` [AZD3965, 5-[[(4S)-4-hydroxy-4-methyl-2-isoxazolidinyl]carbonyl]-3-methyl-1-(1-methylethyl)-6-[[5-methyl-3-(trifluoromethyl)-1H-pyrazol-4-yl]methyl]-thieno[2,3-d]pyrimidine-2,4 (1H, 3H)-dione], which “NAD+/NADH ratio” value ([1]; all time points measured (15 min-24 hr)) is on record?
Answer: Its value is “significant change”.

Question: And the “NAD+/NADH ratio” value ([1]; first 8 hr of treatment)?
Answer: The value was “significant decrease”.

Question: What about the “total CDK1 protein expression” value ([2]; 1 μM, up to 72 hr) of the same molecule?
Answer: Its value is “no change”.

Question: What about the “CDK1 phosphorylation at Tyr15” value ([2]; 1 μM, up to 72 hr, normalized to total CDK1 and α-tubulin) of the same molecule?
Answer: Its value is “significant decrease”.

Question: What about the HSL protein expression ([2]; mature adipocytes, 24-72 hr treatment) of the same molecule?
Answer: The HSL protein expression was “significant decrease”.

Question: And the FABP4 protein expression ([2]; mature adipocytes, 48 hr treatment)?
Answer: Its FABP4 protein expression is “significantly increased”.

Question: And the FABP4 protein expression ([2]; mature adipocytes, by 72 hr treatment)?
Answer: The FABP4 protein expression was “this increase was attenuated”.

Question: What about the PPARγ protein expression ([2]; mature adipocytes, up to 72 hr treatment) of the same molecule?
Answer: Its PPARγ protein expression is “no changes”.

Question: And the intracellular pyruvate levels ([3]; after 24 hr)?
Answer: Its intracellular pyruvate levels is “not significantly altered”.

Question: And the intracellular pyruvate ([3]; first 8 hr of treatment)?
Answer: Its intracellular pyruvate is “significant increase”.

Question: And the “total cell number (proliferation)” value [4]?
Answer: Its value is “significant increase in total cell number”.

Question: And the “intracellular lactate levels relative to basal” value ([5]; after 24 hr)?
Answer: The value was “approximately 2 fold”.

Question: And the intracellular lactate ([5]; within 15 minutes, maintained through first 4 hr)?
Answer: Its intracellular lactate is “significant increase”.

Question: What about the insulin-stimulated glucose uptake ([6]; 1 μM for 24 hr) of the same molecule?
Answer: The insulin-stimulated glucose uptake was “did not reach statistical significance”.

Question: What about the insulin-stimulated glucose uptake ([6]; 1 μM for 48 hr and 72 hr) of the same molecule?
Answer: Its insulin-stimulated glucose uptake is “significant increase”.

Question: And the “basal, non-insulin stimulated glucose uptake” value ([6]; 1 μM, 24-72 hr)?
Answer: Its value is “no impact”.
